What was measured:
[1] = system: Rattus norvegicus; assay: Inhibition of firing rates of dopaminergic neurons in the substantia nigra pars compacta by intravenous injection in rats.; type: functional; settings: Rattus norvegicus, Substantia nigra pars compacta, iv; read-out: ED50
[2] = system: Mus musculus; assay: Effective dose on hypothermia in mouse when administered subcutaneously; type: functional; settings: sc
[3] = system: Mus musculus; assay: Maximum decrease in temperature when compound is administered subcutaneously; type: functional
[4] = system: Mus musculus; assay: Maximum decrease in temperature when compound is administered through peroral route; type: functional
[5] = system: Mus musculus; assay: Effective dose on hypothermia in mouse when administered through peroral route; type: functional; settings: po
[6] = biological target: T1, D(2) dopamine receptor (Rattus norvegicus, UniProt P61169); assay: Binding affinity against [3H]raclopride-labeled dopamine receptor D2 in rat striatum.; type: tissue-based
T1 sequence (P61169 whole entry): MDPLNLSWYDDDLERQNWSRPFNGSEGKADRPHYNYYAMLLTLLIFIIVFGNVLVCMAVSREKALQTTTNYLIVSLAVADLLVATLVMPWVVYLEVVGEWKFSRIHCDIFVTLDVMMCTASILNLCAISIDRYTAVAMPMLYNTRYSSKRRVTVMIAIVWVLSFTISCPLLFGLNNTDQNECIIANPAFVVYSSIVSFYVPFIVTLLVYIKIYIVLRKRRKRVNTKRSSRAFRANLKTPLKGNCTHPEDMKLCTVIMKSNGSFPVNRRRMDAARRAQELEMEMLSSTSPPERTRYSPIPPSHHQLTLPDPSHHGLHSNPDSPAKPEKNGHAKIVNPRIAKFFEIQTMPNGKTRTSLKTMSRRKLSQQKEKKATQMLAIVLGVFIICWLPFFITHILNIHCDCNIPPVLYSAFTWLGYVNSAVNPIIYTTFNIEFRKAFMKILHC

[7] = system: Mus musculus; assay: Ability to stimulate dopaminergic systems by effect on locomotor activity in reserpinized mice when a dose of 3.8 micro mol/kg is administered intraperitoneally; type: functional
[8] = system: Mus musculus; assay: Antagonism of apomorphine for 0-10 minutes in reserpinized mice when a dose of 38 micro mol/kg is administered intraperitoneally; type: functional
[9] = system: Mus musculus; assay: Antagonism of apomorphine effects in reserpinized mice following 0.4 umol/kg i.p.; type: functional
[10] = system: Mus musculus; assay: Antagonism of apomorphine for 10-20 minutes in reserpinized mice when a dose of 3.8 micro mol/kg is administered intraperitoneally; type: functional
[11] = system: Mus musculus; assay: Antagonism of apomorphine effects for 10-20 minutes in reserpinized mice following 0.4 umol/kg i.p.; type: functional
[12] = system: Mus musculus; assay: Antagonism of apomorphine for 0-10 minutes in reserpinized mice when a dose of 3.8 micro mol/kg is administered intraperitoneally; type: functional
[13] = system: Mus musculus; assay: Ability to stimulate dopaminergic systems by effect on locomotor activity in reserpinized mice when a dose of 38 micro mol/kg is administered intraperitoneally; type: functional
[14] = system: Mus musculus; assay: Antagonism of apomorphine for 10-20 minutes in reserpinized mice when a dose of 38 micro mol/kg is administered intraperitoneally; type: functional
[15] = biological target: T2, D(2) dopamine receptor (Homo sapiens, UniProt P14416); assay: Intrinsic activity from GTP shift using membranes from CHO cells transfected with mammalian dopamine receptor D2.; type: cell membranes
T2 sequence (P14416 whole entry): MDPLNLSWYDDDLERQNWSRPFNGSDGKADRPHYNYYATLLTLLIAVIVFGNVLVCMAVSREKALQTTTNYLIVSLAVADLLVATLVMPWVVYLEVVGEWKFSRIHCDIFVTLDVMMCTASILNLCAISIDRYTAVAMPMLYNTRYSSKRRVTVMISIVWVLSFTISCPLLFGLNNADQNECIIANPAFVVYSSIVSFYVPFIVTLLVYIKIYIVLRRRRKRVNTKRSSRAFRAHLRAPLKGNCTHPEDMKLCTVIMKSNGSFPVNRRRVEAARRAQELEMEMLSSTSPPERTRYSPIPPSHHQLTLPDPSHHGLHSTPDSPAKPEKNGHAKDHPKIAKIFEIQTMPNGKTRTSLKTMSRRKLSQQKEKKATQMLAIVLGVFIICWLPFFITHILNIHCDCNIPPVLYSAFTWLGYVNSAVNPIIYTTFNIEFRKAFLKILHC

[16] = system: Mus musculus; assay: Antagonism of apomorphine effects for 0-10 minutes in reserpinized mice following 0.4 umol/kg i.p.; type: functional; design: unit not given beside the values
[17] = system: Mus musculus; assay: Antagonism of apomorphine in reserpinized mice when a dose of 38 micro mol/kg is administered intraperitoneally; type: functional
[18] = system: Mus musculus; assay: Antagonism of apomorphine in reserpinized mice when a dose of 3.8 micro mol/kg is administered intraperitoneally; type: functional
[19] = biological target: T2, D(2) dopamine receptor; assay: Binding affinity against [3H]U-86,170-labeled dopamine receptor D2 in cloned CHO cells; type: cell-based
[20] = system: Mus musculus; assay: Increase in locomotor activity in reserpinized mice following 0.4 umol/kg i.p.; type: functional
[21] = biological target: T1, D(2) dopamine receptor; assay: Inhibitory concentration against [3H]raclopride-labeled dopamine receptor D2 in rat striatum; type: tissue-based
[22] = system: Felis catus; assay: Maximum decrease of arterial blood pressure at sympathetic nerve activity (SND) in anesthetized cat has been observed following 1 mg/kg dose; type: functional; design: scale not given: the % may be the effect or the level left
[23] = system: Felis catus; assay: Maximum decrease of sympathetic nerve activity (SND) in anesthetized cat; type: functional; design: scale not given: the % may be the effect or the level left
[24] = species: Felis catus; assay: Percent of arterial blood pressure at sympathetic nerve activity (SND) dose value was determined; type: functional
[25] = system: Felis catus; assay: Effective dose at which the sympathetic nerve activity (SND) has been reduced to 50% of the pretreatment value in anesthetized cat; type: functional
[26] = system: Rattus norvegicus; assay: Inhibition of firing rates of serotonergic neurons in the dorsal raphe nucleus by intravenous injection in rats; type: functional
[27] = system: Rattus norvegicus; assay: Inhibition of firing rates of dopaminergic neurons in the substantia nigra pars compacta by intravenous injection in rats; type: functional
[28] = system: Mus musculus; assay: Antagonism of apomorphine for 0-10 minutes in reserpinized mice when a dose of 3.6 micro mol/kg is administered intraperitoneally; type: functional
[29] = system: Mus musculus; assay: Antagonism of apomorphine for 10-20 minutes in reserpinized mice when a dose of 3.6 micro mol/kg is administered intraperitoneally; type: functional
[30] = species: Rattus norvegicus; assay: Effect on the synthesis rates of serotonin (5-HTP accumulation) in the rat ventral limbic brain region at 10.7uMkg. value as percent change from the control; type: functional, Limbic system
[31] = system: Mus musculus; assay: Ability to stimulate dopaminergic systems by effect on locomotor activity in reserpinized mice when a dose of 3.6 micro mol/kg is administered intraperitoneally; type: functional
[32] = system: Mus musculus; assay: Antagonism of apomorphine in reserpinized mice when a dose of 36 micro mol/kg is administered intraperitoneally; type: functional
[33] = system: Mus musculus; assay: Antagonism of apomorphine for 10-20 minutes in reserpinized mice when a dose of 36 micro mol/kg is administered intraperitoneally; type: functional
[34] = system: Mus musculus; assay: Antagonism of apomorphine in reserpinized mice when a dose of 3.6 micro mol/kg is administered intraperitoneally; type: functional
[35] = species: Rattus norvegicus; assay: Effect on the synthesis rates of serotonin (5-HTP accumulation) in the rat ventral limbic brain region at 10.7uMkg.; type: functional, Limbic system
[36] = system: Mus musculus; assay: Ability to stimulate dopaminergic systems by effect on locomotor activity in reserpinized mice when a dose of 36 micro mol/kg is administered intraperitoneally; type: functional
[37] = system: Mus musculus; assay: Antagonism of apomorphine for 0-10 minutes in reserpinized mice when a dose of 36 micro mol/kg is administered intraperitoneally; type: functional
[38] = system: Felis catus; assay: Maximum decrease of sympathetic nerve activity (SND) in anesthetized cat has been expressed as percent control; type: functional; design: scale not given: the % may be the effect or the level left
[39] = system: Mus musculus; assay: Ability to stimulate dopaminergic systems by effect on locomotor activity in reserpinized mice when a dose of 3.5 micro mol/kg is administered intraperitoneally; type: functional
[40] = system: Mus musculus; assay: Antagonism of apomorphine in reserpinized mice when a dose of 35 micro mol/kg is administered intraperitoneally; type: functional
[41] = system: Mus musculus; assay: Antagonism of apomorphine in reserpinized mice when a dose of 3.5 micro mol/kg is administered intraperitoneally; type: functional
[42] = system: Mus musculus; assay: Antagonism of apomorphine for 0-10 minutes in reserpinized mice when a dose of 35 micro mol/kg is administered intraperitoneally; type: functional
[43] = system: Mus musculus; assay: Antagonism of apomorphine for 10-20 minutes in reserpinized mice when a dose of 3.5 micro mol/kg is administered intraperitoneally; type: functional
[44] = system: Mus musculus; assay: Antagonism of apomorphine for 10-20 minutes in reserpinized mice when a dose of 35 micro mol/kg is administered intraperitoneally; type: functional
[45] = system: Mus musculus; assay: Ability to stimulate dopaminergic systems by effect on locomotor activity in reserpinized mice when a dose of 35 micro mol/kg is administered intraperitoneally; type: functional
[46] = system: Mus musculus; assay: Antagonism of apomorphine for 0-10 minutes in reserpinized mice when a dose of 3.5 micro mol/kg is administered intraperitoneally; type: functional

## CN1CCc2cccc3c2[C@H]1Cc1ccc(O)c(O)c1-3 [APOMORPHINE]
[1]
  ED50: 0.03 µmol/kg

## CCCN1CCC2c3c(cccc3OC)CCC21 (racemic)
[2]
  ED50: 20 µmol/kg
[3]
  Max temperature decrease: 1.5
[4]
  Max temperature decrease: 6
[5]
  ED50: 109 µmol/kg
[6]
  Ki: > 1000 nM

## C=CCN1CCC2c3cccc(O)c3CC[C@@H]21 (single isomer, unassigned; (+))
[7]
  Locomotor activity: 42
[1]
  ED50: 2.82 µmol/kg
[8]
  Locomotor activity: 20
[9]
  Locomotor activity: 79
[10]
  Locomotor activity: 90
[11]
  Locomotor activity: 76
[12]
  Locomotor activity: 54
[13]
  Locomotor activity: 17
[14]
  Locomotor activity: 37
[15]
  Intrinsic activity: 50%
[16]
  Locomotor activity: 50
[17]
  Locomotor activity: 62
[18]
  Locomotor activity: 62
[19]
  Ki: 59 nM
[6]
  Ki: 259 nM
[20]
  Locomotor activity: 11

## C=CCN1CC[C@@H]2c3cccc(OC)c3CC[C@@H]21
[1]
  ED50: > 3.6 µmol/kg

## CN(C)CCCN1c2ccccc2Sc2ccc(Cl)cc21 [CHLORPROMAZINE]
[15]
  Intrinsic activity: 5%

## CCCN1CC[C@H]2c3c(O)cccc3CC[C@H]21
[2]
  ED50: 0.3 µmol/kg
[3]
  Max temperature decrease: 5.5
[4]
  Max temperature decrease: 7.3
[5]
  ED50: 4.9 µmol/kg
[21]
  IC50: > 1000 nM

## CCCN1[C@@H]2CCc3cccc(OC)c3C2C[C@@H]1C (mixture of isomers)
[2]
  ED50: 14 µmol/kg
[3]
  Max temperature decrease: 6.8
[4]
  Max temperature decrease: 3
[22]
  Control: 73%
[5]
  ED50: 338 µmol/kg
[23]
  Control: 82%
[24]
  BP: 42%
[21]
  IC50: > 1000 nM
[25]
  ED50: 0.17 µmol/kg

## C=CCN1CC[C@H]2c3cccc(O)c3CC[C@H]21 (racemic)
[7]
  Locomotor activity: 8
[8]
  Locomotor activity: 32
[9]
  Locomotor activity: 130
[10]
  Locomotor activity: 111
[11]
  Locomotor activity: 111
[12]
  Locomotor activity: 88
[13]
  Locomotor activity: 12
[14]
  Locomotor activity: 52
[15]
  Intrinsic activity: 29%
[16]
  Locomotor activity: 101
[17]
  Locomotor activity: 21
[18]
  Locomotor activity: 111
[19]
  Ki: 75 nM
[6]
  Ki: 198 nM
[20]
  Locomotor activity: 0

## CCCN(CCC)C1CCc2cccc(O)c2C1 (configuration not stated) [8-OH-DPAT]
[26]
  ED50: 0.005 µmol/kg
[27]
  ED50: 2.25 µmol/kg
[6]
  Ki: > 1000 nM

## CCCN1CC[C@H]2c3cccc(O)c3CC[C@H]21 (racemic)
[15]
  Intrinsic activity: 1%
[19]
  Ki: 218 nM
[6]
  Ki: > 1000 nM

## C=CCN1CC[C@@H]2c3cccc(OC)c3CC[C@H]21 (racemic)
[2]
  ED50: > 107 µmol/kg
[9]
  Locomotor activity: 156
[11]
  Locomotor activity: 106
[28]
  Locomotor activity: 76
[3]
  Max temperature decrease: 3.4
[29]
  Locomotor activity: 116
[22]
  Control: 61%
[30]
  Control: 95%
[31]
  Locomotor activity: 81
[32]
  Locomotor activity: 13
[15]
  Intrinsic activity: 0%
[33]
  Locomotor activity: 54
[34]
  Locomotor activity: 142
[16]
  Locomotor activity: 78
[35]
  Control: -51%
[36]
  Locomotor activity: 49
[37]
  Locomotor activity: 42
[6]
  Ki: 99 nM
[38]
  Control: 105%
[20]
  Locomotor activity: 4

## CCCN1CC[C@@H]2c3cccc(OC)c3CC[C@H]21 (racemic)
[2]
  ED50: 34 µmol/kg
[39]
  Locomotor activity: 6
[9]
  Locomotor activity: 188
[11]
  Locomotor activity: 123
[40]
  Locomotor activity: 53
[3]
  Max temperature decrease: 3.9
[15]
  Intrinsic activity: 0%
[41]
  Locomotor activity: 122
[16]
  Locomotor activity: 87
[42]
  Locomotor activity: 10
[43]
  Locomotor activity: 98
[44]
  Locomotor activity: 34
[45]
  Locomotor activity: 27
[46]
  Locomotor activity: 64
[20]
  Locomotor activity: 1

## CCCN1CCC2c3c(O)cccc3CCC21 (racemic)
[2]
  ED50: 2.1 µmol/kg
[3]
  Max temperature decrease: 8.8
[4]
  Max temperature decrease: 2.6
[5]
  ED50: 154 µmol/kg
[21]
  IC50: > 1000 nM

## COc1cccc2c1CC[C@@H]1[C@@H]2CCN1CC1CC1 (racemic)
[6]
  Ki: > 10000 nM

## COc1cccc2c1C1CCN(CCc3ccccc3)[C@@H]1CC2 (some centres not stated)
[19]
  Ki: > 339 nM

## C=CCN1CC[C@@H]2c3c(O)cccc3CC[C@H]21 (racemic)
[7]
  Locomotor activity: 5
[8]
  Locomotor activity: 49
[9]
  Locomotor activity: 73
[10]
  Locomotor activity: 53
[11]
  Locomotor activity: 66
[12]
  Locomotor activity: 71
[13]
  Locomotor activity: 1
[14]
  Locomotor activity: 33
[15]
  Intrinsic activity: 13%
[16]
  Locomotor activity: 46
[17]
  Locomotor activity: 9
[18]
  Locomotor activity: 5
[19]
  Ki: 25 nM
[20]
  Locomotor activity: 26

## CCCN1CC[C@@H]2c3c(cccc3OC)CC[C@@H]21
[6]
  Ki: > 1000 nM

## CCCN1CC[C@@H]2c3c(O)cccc3CC[C@@H]21
[2]
  ED50: 0.05 µmol/kg
[3]
  Max temperature decrease: 8.5
[4]
  Max temperature decrease: 5.5
[5]
  ED50: 21 µmol/kg
[15]
  Intrinsic activity: 0%
[21]
  IC50: > 1000 nM
